In patent US20250073255A1, “USE OF FA-TYPE LIPID COMPOUNDS IN PREPARATION OF NUCLEIC ACID DELIVERY REAGENT AND RELATED PRODUCT” (BEIJING BAISHIKANG PHARMACEUTICAL TECHNOLOGY (BSJPHARMA) …, priority 2021, published 2025):

Tested on: C57BL/6 male mice
Assay: In vivo delivery study of lipid nucleic acid mixture (oral gavage, RT-qPCR of PGY-sRNA-26 in tissues)
Design: species or system mouse
Settings: for oral delivery of single-stranded sRNA nucleic acids into mouse blood / oral delivery of single-stranded sRNA nucleic acids into mouse brain tissue / oral delivery of single-stranded sRNA nucleic acids into mouse femur / oral delivery of single-stranded sRNA nucleic acids into mouse heart tissue / oral delivery of single-stranded sRNA nucleic acids into mouse intestinal tissue / oral delivery of single-stranded sRNA nucleic acids into mouse kidney tissue / oral delivery of single-stranded sRNA nucleic acids into mouse liver tissue / oral delivery of single-stranded sRNA nucleic acids into mouse lung tissue / oral delivery of single-stranded sRNA nucleic acids into mouse pancreatic tissue / oral delivery of single-stranded sRNA nucleic acids into mouse spleen tissue / oral delivery of single-stranded sRNA nucleic acids into mouse stomach tissue: 100 μg lipid:10 nmol PGY-sRNA-26, sampled after 12 hours; for oral delivery of single-stranded sRNA nucleic acids into mouse heart tissue: vs free uptake group; for oral delivery of single-stranded sRNA nucleic acids into mouse intestinal tissue: intestine; for oral delivery of single-stranded sRNA nucleic acids into mouse pancreatic tissue: pancreas
How it was run: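 Lipid (100 μg) and 10 nmol 3'-methylated single-stranded PGY-sRNA-26 were heated at 90 °C for 15 min, then given by oral gavage to mice fasted 12 h. Controls were saline and free sRNA. Blood and tissues were taken at 12 h, and levels were measured by stem-loop RT-qPCR relative to U6.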

| SMILES | oral delivery of single-stranded sRNA nucleic acids into mouse blood | oral delivery of single-stranded sRNA nucleic acids into mouse brain tissue | oral delivery of single-stranded sRNA nucleic acids into mouse femur | oral delivery of single-stranded sRNA nucleic acids into mouse heart tissue | oral delivery of single-stranded sRNA nucleic acids into mouse intestinal tissue | oral delivery of single-stranded sRNA nucleic acids into mouse kidney tissue | oral delivery of single-stranded sRNA nucleic acids into mouse liver tissue | oral delivery of single-stranded sRNA nucleic acids into mouse lung tissue | oral delivery of single-stranded sRNA nucleic acids into mouse pancreatic tissue | oral delivery of single-stranded sRNA nucleic acids into mouse spleen tissue | oral delivery of single-stranded sRNA nucleic acids into mouse stomach tissue | overall delivery efficacy: delivering nucleic acids into each tissue and blood tested (100 μg lipid:10 nmol PGY-sRNA-26, all tissues and blood tested) |
| --- | --- | --- | --- | --- | --- | --- | --- | --- | --- | --- | --- | --- |
| CCCCC/C=C\C/C=C\CCCCCCCCOC(=O)CCCCCCCCCCCCCCC [Lipid 804, [(9Z,12Z)-octadeca-9,12-dienyl] hexadecanoate] | can effectively orally deliver | can effectively orally deliver | can effectively orally deliver | can effectively orally deliver | can effectively orally deliver | can effectively orally deliver | can effectively orally deliver | can effectively orally deliver | can effectively orally deliver | can effectively orally deliver | can effectively orally deliver |  |
| CC/C=C\C/C=C\C/C=C\CCCCCCCC(=O)OCCCCCCCCCCCC [Lipid 805, dodecyl (9Z,12Z,15Z)-octadeca-9,12,15-trienoate] | can effectively orally deliver | can effectively orally deliver | can effectively orally deliver | can effectively orally deliver | can effectively orally deliver | can effectively orally deliver | can effectively orally deliver | can effectively orally deliver | can effectively orally deliver | can effectively orally deliver | can effectively orally deliver |  |
| CCCCC/C=C\C/C=C\C/C=C\C/C=C\CCCC(=O)NCCCCCO [Lipid 807, (5Z,8Z,11Z,14Z)-N-(5-hydroxypentyl)icosa-5,8,11,14-tetraenamide] | can effectively orally deliver | can effectively orally deliver | can effectively orally deliver | can effectively orally deliver | can effectively orally deliver | can effectively orally deliver | can effectively orally deliver | can effectively orally deliver | can effectively orally deliver | can effectively orally deliver | can effectively orally deliver |  |
| CCCCC/C=C\C/C=C\C/C=C\C/C=C\CCCC(=O)NCCCO [Lipid 808, (5Z,8Z,11Z,14Z)-N-(3-hydroxypropyl)icosa-5,8,11,14-tetraenamide] | can effectively orally deliver | can effectively orally deliver | can effectively orally deliver | can effectively orally deliver | can effectively orally deliver | can effectively orally deliver | can effectively orally deliver | can effectively orally deliver | can effectively orally deliver | can effectively orally deliver | can effectively orally deliver |  |
| CCCCCCC(=O)OC/C=C(\C)CC/C=C(\C)CCC=C(C)C [Lipid 809, [(2E,6E)-3,7,11-trimethyldodeca-2,6,10-trienyl]heptanoate] | can effectively orally deliver | can effectively orally deliver | can effectively orally deliver | can effectively orally deliver | can effectively orally deliver | can effectively orally deliver | can effectively orally deliver | can effectively orally deliver | can effectively orally deliver | can effectively orally deliver | can effectively orally deliver |  |
| CCCCC/C=C\C/C=C\C/C=C\C/C=C\CCCC(=O)NCCN(CC)CC [Lipid 810, (5Z,8Z,11Z,14Z)-N-[2-(diethylamino)ethyl]icosa-5,8,11,14-tetraenamide] | can effectively orally deliver | can effectively orally deliver | can effectively orally deliver | can effectively orally deliver | can effectively orally deliver | can effectively orally deliver | can effectively orally deliver | can effectively orally deliver | can effectively orally deliver | can effectively orally deliver | can effectively orally deliver | best delivery efficacy |
| CCCCC/C=C\C/C=C\CCCCCCCC(=O)OCCCCCCCCCCCCCC [Lipid 811, tetradecyl (9Z,12Z)-octadeca-9,12-dienoate] | can effectively orally deliver | can effectively orally deliver | can effectively orally deliver | can effectively orally deliver | can effectively orally deliver | can effectively orally deliver | can effectively orally deliver | can effectively orally deliver | can effectively orally deliver | can effectively orally deliver | can effectively orally deliver |  |
| CCCCC/C=C\C/C=C\CCCCCCCCOC(=O)CCCCCCCCCCCCCCCCCCC [Lipid 812, [(9Z,12Z)-octadeca-9,12-dienyl] icosanoate] | can effectively orally deliver | can effectively orally deliver | can effectively orally deliver | can effectively orally deliver | can effectively orally deliver | can effectively orally deliver | can effectively orally deliver | can effectively orally deliver | can effectively orally deliver | can effectively orally deliver | can effectively orally deliver |  |
| CCCCCC/C=C\CCCCCCCC(=O)OCCCCCCCCCCCCC [Lipid 813, tridecyl (Z)-hexadec-9-enoate] | can effectively orally deliver | can effectively orally deliver | can effectively orally deliver | can effectively orally deliver | can effectively orally deliver | can effectively orally deliver | can effectively orally deliver | can effectively orally deliver | can effectively orally deliver | can effectively orally deliver | can effectively orally deliver |  |
